Where “and” joins values, the source holds several entries; their conditions need not be identical. Equal entries are not always repeated. Inconclusive results and toxic doses are left out. Rule as the data show it: active = T/C of 150% or more; inactive = T/C below 125%.
Tested on: L1210 leukemia ip in BDF1 mice, survival T/C
Test: NCI In Vivo Anticancer Drug Screen. Data for tumor model L1210 Leukemia (intraperitoneal) in B6D2F1 (BDF1) mice
Settings: endpoint: mean survival time, higher = longer survival
Method in brief: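 In this screen, tumor-bearing mice given compound are compared to those given vehicle, and their survival values are reported as a treated-to-control quotient.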

[1] = dose: 100.0 mg/kg/injection, schedule: Q01DX001 (ip), vehicle: saline
[2] = dose: 200.0 mg/kg/injection, schedule: Q01DX001 (ip), vehicle: saline
[3] = dose: 400.0 mg/kg/injection, schedule: Q01DX001 (ip), vehicle: saline
[4] = dose: 100.0 mg/kg/injection, schedule: Q04DX003 (ip), vehicle: Klucel (hydroxypropylcellulose) (HPC)
[5] = dose: 200.0 mg/kg/injection, schedule: Q04DX003 (ip), vehicle: Klucel (hydroxypropylcellulose) (HPC)
[6] = dose: 400.0 mg/kg/injection, schedule: Q04DX003 (ip), vehicle: Klucel (hydroxypropylcellulose) (HPC)
[7] = dose: 50.0 mg/kg/injection, schedule: Q01DX001 (ip), vehicle: saline

Measured: T/C

O=C1c2ccccc2CCC12OC2c1ccccc1[N+](=O)[O-] (stereo unspecified)
inactive: dose: 100.0 mg/kg/injection, schedule: Q01DX009 (ip), vehicle: saline 88 % of control | dose: 100.0 mg/kg/injection, schedule: Q04DX003 (ip), vehicle: acetone 98 % of control | dose: 200.0 mg/kg/injection, schedule: Q01DX009 (ip), vehicle: saline 89 % of control | dose: 200.0 mg/kg/injection, schedule: Q04DX003 (ip), vehicle: acetone 93 % of control | dose: 400.0 mg/kg/injection, schedule: Q01DX009 (ip), vehicle: saline 98 % of control | dose: 400.0 mg/kg/injection, schedule: Q04DX003 (ip), vehicle: acetone 109 % of control

CCOC(=O)/C(C#N)=C/NN
inactive: dose: 6.25 mg/kg/injection, schedule: Q04DX003 (ip), vehicle: saline 100 % of control | dose: 12.5 mg/kg/injection, schedule: Q04DX003 (ip), vehicle: saline 96 % of control | dose: 25.0 mg/kg/injection, schedule: Q04DX003 (ip), vehicle: saline 96 % of control

CNNC(=O)C(O)C(C)(C)CO (stereo unspecified)
inactive: [1] 100 % of control | [2] 100 % of control | [3] 102 % of control

CC(=O)c1ccccc1O.CO.CO.[Cl][Nb][Cl]
inactive: dose: 75.0 mg/kg/injection, schedule: Q01DX001 (ip), vehicle: saline 93 % of control | dose: 150.0 mg/kg/injection, schedule: Q01DX001 (ip), vehicle: saline 90 % of control | dose: 300.0 mg/kg/injection, schedule: Q01DX001 (ip), vehicle: saline 90 % of control

CCCCCCCCCC1=NN(c2cccc(S(=O)(=O)N(C)c3ccccc3)c2)C(=O)C1
inactive: dose: 100.0 mg/kg/injection, schedule: Q04DX003 (ip), vehicle: saline 94 % of control | dose: 200.0 mg/kg/injection, schedule: Q04DX003 (ip), vehicle: saline 94 % of control | dose: 400.0 mg/kg/injection, schedule: Q04DX003 (ip), vehicle: saline 91 % of control

C1COB(OCCNCCOB2OCCNCCO2)OCCN1
inactive: dose: 100.0 mg/kg/injection, schedule: Q01DX009 (ip), vehicle: carboxymethylcellulose (CMC) 100 % of control | dose: 100.0 mg/kg/injection, schedule: Q04DX002 (ip), vehicle: carboxymethylcellulose (CMC) 98 % of control and 101 % of control | dose: 100.0 mg/kg/injection, schedule: Q04DX003 (ip), vehicle: carboxymethylcellulose (CMC) 100 % of control | dose: 200.0 mg/kg/injection, schedule: Q01DX009 (ip), vehicle: carboxymethylcellulose (CMC) 97 % of control and 106 % of control | dose: 200.0 mg/kg/injection, schedule: Q04DX002 (ip), vehicle: carboxymethylcellulose (CMC) 95 % of control and 103 % of control | dose: 200.0 mg/kg/injection, schedule: Q04DX003 (ip), vehicle: carboxymethylcellulose (CMC) 104 % of control | dose: 400.0 mg/kg/injection, schedule: Q01DX009 (ip), vehicle: carboxymethylcellulose (CMC) 100 % of control | dose: 400.0 mg/kg/injection, schedule: Q04DX002 (ip), vehicle: carboxymethylcellulose (CMC) 103 % of control and 106 % of control | dose: 400.0 mg/kg/injection, schedule: Q04DX003 (ip), vehicle: carboxymethylcellulose (CMC) 100 % of control

CN(CCO)N=Nc1ccccc1
inactive: dose: 6.0 mg/kg/injection, schedule: Q01DX009 (ip), vehicle: other 105 % of control | dose: 12.0 mg/kg/injection, schedule: Q01DX009 (ip), vehicle: other 96 % of control | dose: 12.5 mg/kg/injection, schedule: Q01DX009 (ip), vehicle: other 112 % of control | dose: 18.0 mg/kg/injection, schedule: Q01DX009 (ip), vehicle: other 88 % of control | dose: 25.0 mg/kg/injection, schedule: Q01DX009 (ip), vehicle: other 109 % of control

CCCCC(NC(C)=O)C(=O)O (stereo unspecified)
inactive: dose: 100.0 mg/kg/injection, schedule: Q01DX009 (ip), vehicle: Klucel (hydroxypropylcellulose) (HPC) 96 % of control and 100 % of control | [4] 90 % of control | dose: 200.0 mg/kg/injection, schedule: Q01DX009 (ip), vehicle: Klucel (hydroxypropylcellulose) (HPC) 86 % of control and 97 % of control | [5] 97 % of control | dose: 400.0 mg/kg/injection, schedule: Q01DX009 (ip), vehicle: Klucel (hydroxypropylcellulose) (HPC) 88 % of control | [6] 90 % of control

O=NN1CCOCC1
inactive: [7] 104 % of control | [1] 93 % of control | [2] 104 % of control

Cc1cc(CCNC=O)c(C)c2c1sc1ccccc12
inactive: [7] 97 % of control | [1] 97 % of control | [2] 92 % of control | [3] 94 % of control

CNS(=O)(=O)c1ccccc1C(=O)c1ccccc1
inactive: [1] 100 % of control | [2] 97 % of control | [3] 103 % of control

CC(=O)c1ccc(C(O)C(CO)NC(=O)C(Cl)Cl)cc1 (stereo unspecified)
inactive: [4] 100 % of control | [5] 103 % of control | [6] 103 % of control

Source: PubChem BioAssay AID248 (DTP/NCI, 2004)
